Values quoted from earlier work, collected in patent US20110178470A1, “PHARMACEUTICAL COMPOSITIONS COMPRISING BORONIC ACID COMPOUNDS” (DR. REDDY'S LABORATORIES LTD., priority 2008, published 2011).

Conditions: as the monomeric boronic acid; pH range of 2 to 6.5

solubility in water: 3300 to 3800 µg/mL
SMILES: CC(C)C[C@H](NC(=O)[C@H](Cc1ccccc1)NC(=O)c1cnccn1)B(O)O [bortezomib, [(1R)-3-methyl-1-[[(2S)-1-oxo-3-phenyl-2-[(pyrazinylcarbonyl)amino]propyl]amino]butyl]boronic acid]
